In US11040981B2, “Pyrrolotriazine compounds and methods of inhibiting TAM kinases” (Syros Pharmaceuticals, Inc., priority 2017, dated 2021):

Tests used:
TYRO3 = target: T1, TYRO3 (Homo sapiens, UniProt Q06418); experiment: TR-FRET kinase activity assay, TYRO3; format: biochemical; details: ATP at Km, 60 minutes
T1 sequence (Q06418 41-890): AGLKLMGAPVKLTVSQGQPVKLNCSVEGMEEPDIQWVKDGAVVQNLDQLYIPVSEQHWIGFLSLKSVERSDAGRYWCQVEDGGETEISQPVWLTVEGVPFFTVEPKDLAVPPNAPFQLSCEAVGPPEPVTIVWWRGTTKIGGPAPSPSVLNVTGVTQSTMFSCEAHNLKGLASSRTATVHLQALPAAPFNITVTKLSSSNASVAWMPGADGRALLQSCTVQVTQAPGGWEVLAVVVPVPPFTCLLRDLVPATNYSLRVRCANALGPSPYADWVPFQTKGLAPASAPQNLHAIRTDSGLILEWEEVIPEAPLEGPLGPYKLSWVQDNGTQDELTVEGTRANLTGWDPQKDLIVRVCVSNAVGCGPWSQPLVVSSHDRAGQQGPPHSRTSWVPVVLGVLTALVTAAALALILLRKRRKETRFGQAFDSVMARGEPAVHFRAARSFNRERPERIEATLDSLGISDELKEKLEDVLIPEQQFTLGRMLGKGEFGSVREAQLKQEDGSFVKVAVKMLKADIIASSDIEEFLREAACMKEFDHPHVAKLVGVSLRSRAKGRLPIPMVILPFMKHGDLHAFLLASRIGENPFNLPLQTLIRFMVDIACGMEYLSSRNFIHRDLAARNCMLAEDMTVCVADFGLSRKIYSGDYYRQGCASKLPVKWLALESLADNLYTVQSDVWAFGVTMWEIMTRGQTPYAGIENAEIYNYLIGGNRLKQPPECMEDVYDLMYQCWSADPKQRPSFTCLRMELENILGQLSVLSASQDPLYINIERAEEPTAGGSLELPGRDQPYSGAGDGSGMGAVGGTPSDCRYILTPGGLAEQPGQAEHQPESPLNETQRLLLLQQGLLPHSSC
Procedure, shortened: (§1)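 Each kinase phosphorylated a fluorescent-labelled tyrosine peptide in 50 mM HEPES pH 7.5, 10 mM MgCl2, 1 mM EGTA, 0.01% Brij 35, 1 mM DTT at RT, with ATP at Km for that enzyme. After 60 min, EDTA quench and Eu-anti-phosphotyrosine antibody (30 min, dark); IC50 from TR-FRET decrease.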

FLT3 = target: T2, FLT3 (Homo sapiens, UniProt P36888); experiment: TR-FRET kinase activity assay, FLT3; format: biochemical; details: ATP at Km, 60 minutes
T2 sequence (P36888 27-993): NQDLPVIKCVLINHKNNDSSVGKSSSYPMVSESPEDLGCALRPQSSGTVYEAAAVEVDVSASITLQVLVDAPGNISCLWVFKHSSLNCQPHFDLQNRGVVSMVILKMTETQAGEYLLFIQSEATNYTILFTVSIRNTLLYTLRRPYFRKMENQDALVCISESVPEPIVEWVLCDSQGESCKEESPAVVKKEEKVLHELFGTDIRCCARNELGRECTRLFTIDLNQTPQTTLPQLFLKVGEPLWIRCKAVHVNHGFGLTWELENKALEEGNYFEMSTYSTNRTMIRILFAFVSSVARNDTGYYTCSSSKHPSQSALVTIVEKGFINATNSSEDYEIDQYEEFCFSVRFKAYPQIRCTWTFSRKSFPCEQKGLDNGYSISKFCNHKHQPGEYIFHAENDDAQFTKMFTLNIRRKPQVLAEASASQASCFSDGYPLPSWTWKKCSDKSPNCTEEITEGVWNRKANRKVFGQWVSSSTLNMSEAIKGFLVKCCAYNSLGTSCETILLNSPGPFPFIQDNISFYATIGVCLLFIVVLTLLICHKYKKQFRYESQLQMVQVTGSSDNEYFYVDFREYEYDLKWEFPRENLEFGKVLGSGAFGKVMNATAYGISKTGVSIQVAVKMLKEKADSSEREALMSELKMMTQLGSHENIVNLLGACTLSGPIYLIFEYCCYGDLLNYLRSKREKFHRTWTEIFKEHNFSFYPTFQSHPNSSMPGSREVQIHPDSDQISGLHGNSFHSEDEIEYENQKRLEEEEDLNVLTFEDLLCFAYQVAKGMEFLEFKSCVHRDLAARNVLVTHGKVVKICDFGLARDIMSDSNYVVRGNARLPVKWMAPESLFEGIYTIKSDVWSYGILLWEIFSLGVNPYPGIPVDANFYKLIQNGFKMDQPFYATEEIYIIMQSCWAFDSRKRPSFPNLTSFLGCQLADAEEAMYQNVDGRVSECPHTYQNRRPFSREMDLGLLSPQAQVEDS
Procedure, shortened: as §1

| Compound | IC50 (TYRO3) | IC50 (FLT3) |
| --- | --- | --- |
| C[C@H](CN(C)C)Nc1ncc2c(-c3cnn(C4COC4)c3)cc([C@H]3CC[C@H](O)CC3)n2n1 [Compound 388] | 1000 to 10000 nM | 1000 to 10000 nM |
| CNOc1cc(-c2cc([C@H]3CC[C@H](O)CC3)n3nc(N[C@@H](C)COC)ncc23)ccn1 [Compound 361] | ≤ 100 nM | 1000 to 10000 nM |
| COC[C@H](C)Nc1ncc2c(-c3cnn(C4(C(=O)N5CCCC5)CC4)c3)cc([C@H]3CC[C@H](O)CC3)n2n1 [Compound 408] | ≤ 100 nM | 100 to 1000 nM |
| COC[C@H](C)Nc1ncc2c(-c3ccnc(NC4CCOC4)c3)cc([C@H]3CC[C@H](O)CC3)n2n1 (stereo partly shown) [Compound 418] | ≤ 100 nM | 100 to 1000 nM |
| COC[C@H](C)Nc1ncc2c(-c3cnn(CC4CCOCC4)c3)cc([C@H]3CC[C@H](O)CC3)n2n1 [Compound 392] | ≤ 100 nM | ≤ 100 nM |
| CNC(=O)c1ncc(-c2cc([C@H]3CC[C@H](O)CC3)n3nc(N[C@@H](C)COC(F)F)ncc23)cn1 [Compound 407] | ≤ 100 nM | 100 to 1000 nM |
| CC(=O)N1CCN(Cc2ccc(-c3cc([C@H]4CC[C@H](O)CC4)n4nc(N[C@@H](C)COC(F)F)ncc34)cc2)CC1 [Compound 413] | ≤ 100 nM | ≤ 100 nM |
| COC[C@H](C)Nc1ncc2c(-c3cnn(C[C@@H]4CCC(=O)N4)c3)cc([C@H]3CC[C@H](O)CC3)n2n1 [Compound 368] | ≤ 100 nM | 100 to 1000 nM |
| CNS(=O)(=O)c1ccc(-c2cc([C@H]3CC[C@H](O)CC3)n3nc(N[C@@H](C)CC(F)(F)F)ncc23)cn1 [Compound 360] | ≤ 100 nM | ≤ 100 nM |
| COC[C@H](C)Nc1ncc2c(-c3cnn(C4(C(=O)NC(C)C)CC4)c3)cc([C@H]3CC[C@H](O)CC3)n2n1 [Compound 415] | ≤ 100 nM | 1000 to 10000 nM |
| COC[C@H](C)Nc1ncc2c(-c3cnn(CCC#N)c3)cc([C@H]3CC[C@](C)(O)CC3)n2n1 [Compound 382] | ≤ 100 nM | 100 to 1000 nM |
| COC[C@H](C)Nc1ncc2c(-c3cnn([C@H]4CCN(C(C)=O)C4)c3)cc([C@H]3CC[C@H](O)CC3)n2n1 [Compound 397] | ≤ 100 nM | 100 to 1000 nM |
| CC1(Nc2ncc3c(-c4cnn(C5COC5)c4)cc(C4CCC(O)CC4)n3n2)COC1 (stereo not shown) [Compound 399] | ≤ 100 nM | 100 to 1000 nM |
| C[C@@H](CN(C)C)Nc1ncc2c(-c3cnn(C4COC4)c3)cc([C@H]3CC[C@H](O)CC3)n2n1 [Compound 387] | 100 to 1000 nM | 1000 to 10000 nM |
| COC[C@H](C)Nc1ncc2c([C@@H]3CCCN(c4ccnc(C)n4)C3)cc([C@H]3CC[C@H](O)CC3)n2n1 [Compound 378] | 100 to 1000 nM | 1000 to 10000 nM |
| CNC(=O)c1ncc(-c2cc([C@H]3CC[C@H](O)CC3)n3nc(N[C@@H](C)CC(F)(F)F)ncc23)cn1 [Compound 347] | ≤ 100 nM | ≤ 100 nM |
| COC[C@H](C)Nc1ncc2c([C@@H]3CCN(S(C)(=O)=O)C3)cc([C@H]3CC[C@H](O)CC3)n2n1 [Compound 375] | ≤ 100 nM | 1000 to 10000 nM |
| COC[C@H](C)Nc1ncc2c(-c3ccnc(N[C@@H]4CCOC4)c3)cc([C@H]3CC[C@H](O)CC3)n2n1 [Compound 416] | ≤ 100 nM | 100 to 1000 nM |
| COC[C@H](C)Nc1ncc2c(-c3ccnc(O[C@H]4CCN(C)C4)c3)cc([C@H]3CC[C@H](O)CC3)n2n1 [Compound 400] | ≤ 100 nM | 100 to 1000 nM |

| Compound | IC50 (TYRO3) | IC50 (FLT3) |
| --- | --- | --- |
| COC[C@H](C)Nc1ncc2c(-c3ccnc(O[C@H]4CCCNC4)c3)cc([C@H]3CC[C@H](O)CC3)n2n1 [Compound 389] | ≤ 100 nM | 100 to 1000 nM |
| COC[C@H](C)Nc1ncc2c(-c3ccnc(O[C@H]4CCCN(C)C4)c3)cc([C@H]3CC[C@H](O)CC3)n2n1 [Compound 403] | ≤ 100 nM | 100 to 1000 nM |
| CCCCC[C@H](C)Nc1ncc2c(C3=CCC(C(=O)O)CC3)cc([C@H]3CC[C@H](O)CC3)n2n1 (stereo partly drawn) [Compound 122, 4-(2-((S)-heptan-2-ylamino)-7-((trans)-4-hydroxycyclohexyl)pyrrolo[2,1-f][1,2,4]triazin-5-yl)cyclohex-3-enecarboxylic acid] | ≤ 100 nM | 100 to 1000 nM |
| C[C@@H](CC(F)F)Nc1ncc2c(-c3cnn(C4COC4)c3)cc([C@H]3CC[C@H](O)CC3)n2n1 [Compound 351] | ≤ 100 nM | ≤ 100 nM |
| COC[C@H](C)Nc1ncc2c(-c3ccnc(O[C@@H]4CCN(C)C4)c3)cc([C@H]3CC[C@H](O)CC3)n2n1 [Compound 402] | ≤ 100 nM | 100 to 1000 nM |
| CC(COC(F)F)Nc1ncc2c(-c3cnn(C(C)(C)C(=O)N4CCOCC4)c3)cc(C3CCC(O)CC3)n2n1 (stereo not shown) [Compound 393] | ≤ 100 nM | ≤ 100 nM |
| C[C@@H](CC(F)(F)F)Nc1ncc2c(C3=CCN(C(=O)OC(C)(C)C)CC3)cc([C@H]3CC[C@H](O)CC3)n2n1 [Compound 412] | ≤ 100 nM | ≤ 100 nM |
| CNC(=O)c1cc(-c2cc([C@H]3CC[C@H](O)CC3)n3nc(N[C@@H](C)CC(F)(F)F)ncc23)cc(C)n1 [Compound 353] | ≤ 100 nM | 100 to 1000 nM |
| COCC(C)Nc1ncc2c(C3CCN(c4ccnc(C)n4)C3)cc(C3CCC(O)CC3)n2n1 (stereo not shown) [Compound 374] | ≤ 100 nM | 1000 to 10000 nM |
| CC(C)Nc1ncc2c(-c3ccnc(N4CCOCC4)c3)cc([C@H]3CC[C@H](O)CC3)n2n1 [Compound 350] | ≤ 100 nM | ≤ 100 nM |
| COC[C@H](C)Nc1ncc2c([C@H]3CCN(S(C)(=O)=O)C3)cc([C@H]3CC[C@H](O)CC3)n2n1 [Compound 376] | ≤ 100 nM | 1000 to 10000 nM |
| CCCCC[C@H](C)Nc1ncc2c([C@H]3CC[C@@H](C(=O)O)CC3)cc([C@H]3CC[C@H](O)CC3)n2n1 [Compound 125, (cis)-4-(2-((S)-heptan-2-ylamino)-7-((trans)-4-hydroxycyclohexyl)pyrrolo[2,1-f][1,2,4]triazin-5-yl)cyclohexanecarboxylic acid] | 100 to 1000 nM | 1000 to 10000 nM |
| COC[C@H](C)Nc1ncc2c([C@@H]3CCCN(C(C)=O)C3)cc([C@H]3CC[C@H](O)CC3)n2n1 [Compound 372] | 1000 to 10000 nM | 1000 to 10000 nM |
| COC[C@H](C)Nc1ncc2c(-c3cnn([C@@H]4CCC(C(=O)OC(C)(C)C)C4)c3)cc([C@H]3CC[C@H](O)CC3)n2n1 (stereo partly shown) [Compound 364] | ≤ 100 nM | ≤ 100 nM |
| CC[C@H](C)Nc1ncc2c(-c3cncc(S(C)(=O)=O)c3)cc([C@H]3CC[C@@H](O)CC3)n2n1 [Compound 120] | ≤ 100 nM | 1000 to 10000 nM |
| COC[C@H](C)Nc1ncc2c(-c3ccnc(N4CCS(=O)(=O)CC4)c3)cc([C@H]3CC[C@H](O)CC3)n2n1 [Compound 357] | ≤ 100 nM | 100 to 1000 nM |
| CN1CCN(Cc2ccc(-c3cc(C4CCC(O)CC4)n4nc(NC5CCC5(C)C)ncc34)cc2)CC1 (mixture of isomers) [Compound 121] | ≤ 100 nM | 100 to 1000 nM |
| COC[C@H](C)Nc1ncc2c(-c3ccnc(O[C@@H]4CCNC4)c3)cc([C@H]3CC[C@H](O)CC3)n2n1 [Compound 401] | ≤ 100 nM | 100 to 1000 nM |
| C[C@@H](CC(F)(F)F)Nc1ncc2c(-c3ccnc(N4CCOCC4)c3)cc([C@H]3CC[C@H](O)CC3)n2n1 [Compound 346] | ≤ 100 nM | ≤ 100 nM |
